Earlier results on two compounds are cited in patent US10611908B2, “Micelles for mucoadhesive drug delivery” (McMaster University, priority 2015, dated 2020).

Usually pKa stands for the pH at which an ionisable group is half protonated. As for `C=C(C)C(=O)O` [MAA, methacrylic acid], the pKa is roughly 4.6.

`OB(O)c1ccccc1` [PBA, Phenylboronic acid]: the pKa is on record as roughly 8.8.
